Assay results as given in patent US11186583B2, “5-alkylthio-7-[(4-arylbenzyl)amino]-1(2)H-pyrazolo[4,3-d]pyrimidines for treatment of lymphoma” (UNIVERZITA PALACKEHO V OLOMOUCI, priority 2018, dated 2021).
Where two headings read alike, the source gives them in different places.

Experiments:
CDK9/Cyclin T1 = target: T1, CDK9/Cyclin T1 (Homo sapiens, UniProt P50750); experiment: CDK9/Cyclin T1 kinase inhibition, [γ-33P]ATP, (YSPTSPS)2 KK peptide; assay type: biochemical; details: CDK panel, tested at least in duplicates
T1 construct: purchased ProQinase GmbH
T1 sequence (P50750 whole entry): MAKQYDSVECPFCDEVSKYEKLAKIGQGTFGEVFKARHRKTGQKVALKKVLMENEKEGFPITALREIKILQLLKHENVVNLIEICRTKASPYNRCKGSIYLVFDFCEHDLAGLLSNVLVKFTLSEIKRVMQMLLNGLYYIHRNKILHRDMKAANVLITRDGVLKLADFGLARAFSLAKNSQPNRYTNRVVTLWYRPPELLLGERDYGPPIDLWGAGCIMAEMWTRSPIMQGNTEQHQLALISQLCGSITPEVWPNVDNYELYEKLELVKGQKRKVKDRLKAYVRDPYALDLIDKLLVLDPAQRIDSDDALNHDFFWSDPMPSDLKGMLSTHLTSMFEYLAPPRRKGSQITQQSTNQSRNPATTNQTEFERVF
T1 sequence (O60563 whole entry partner): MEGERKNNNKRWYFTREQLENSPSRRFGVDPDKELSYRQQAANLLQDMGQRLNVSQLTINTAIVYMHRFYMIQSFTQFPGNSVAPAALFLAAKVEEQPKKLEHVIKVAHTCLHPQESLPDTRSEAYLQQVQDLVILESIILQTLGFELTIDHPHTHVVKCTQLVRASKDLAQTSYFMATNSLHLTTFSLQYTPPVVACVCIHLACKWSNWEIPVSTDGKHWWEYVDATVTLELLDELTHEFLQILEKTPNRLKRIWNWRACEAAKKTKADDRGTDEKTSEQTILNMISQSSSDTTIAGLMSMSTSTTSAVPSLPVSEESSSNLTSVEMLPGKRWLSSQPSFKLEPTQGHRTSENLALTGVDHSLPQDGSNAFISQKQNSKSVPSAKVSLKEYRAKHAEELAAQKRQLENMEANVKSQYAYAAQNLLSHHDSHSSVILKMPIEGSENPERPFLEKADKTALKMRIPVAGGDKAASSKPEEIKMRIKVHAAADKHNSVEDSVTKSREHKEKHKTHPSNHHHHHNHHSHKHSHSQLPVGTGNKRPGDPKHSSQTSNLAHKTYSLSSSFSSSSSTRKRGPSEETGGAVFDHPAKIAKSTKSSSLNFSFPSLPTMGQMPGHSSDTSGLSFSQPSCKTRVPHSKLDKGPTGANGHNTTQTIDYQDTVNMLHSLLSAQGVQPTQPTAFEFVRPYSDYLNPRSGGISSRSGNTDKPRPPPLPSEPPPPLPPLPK
Protocol: (§1) CDK2/Cyclin E and CDK1/Cyclin B kinases were produced in Sf9 insect cells via baculoviral infection and purified on a Ni-NTA column (Qiagen). CDK4/Cyclin D1, CDK5/p35NCK, CDK7/Cyclin H/MAT1 and CDK9/Cyclin T1 were purchased from ProQinase GmbH. The kinases were assayed with 1 mg/mL histone H1 (for CDK1/2/5) or (YSPTSPS)2 KK peptide (for CDK7/CDK9) or […] peptide (for CDK4) in the presence of […] (for CDK1/2/4/5/7/9), 0.05 mCi [γ-33P]ATP and of the test compound in a final volume of […], all in a reaction buffer (60 mM HEPES, NaOH, pH 7.5, 3 mM MgCl2, 3 mM MnCl2, 3 mM Na-orthovanadate, 1.2 mM DTT, 2.5 mg/50 ml PEG20.000). The reactions were stopped by adding […] of 3% aq. H3PO4. Aliquots were spotted onto P-81 phosphocellulose (Whatman), washed 3 times with 0.5% aq. H3PO4 and finally air-dried. Kinase inhibition was quantified using a FLA-7000 digital image analyzer (Fujifilm). The concentration of the test compounds required to decrease the CDK activity by 50% was determined from dose response curves and designated as IC50.

CDK4/Cyclin D1 = target: T2, CDK4/Cyclin D1 (Homo sapiens, UniProt P11802); experiment: CDK4/Cyclin D1 kinase inhibition, [γ-33P]ATP, […] peptide; assay type: biochemical; details: CDK panel, tested at least in duplicates
T2 construct: purchased ProQinase GmbH
T2 sequence (P11802 whole entry): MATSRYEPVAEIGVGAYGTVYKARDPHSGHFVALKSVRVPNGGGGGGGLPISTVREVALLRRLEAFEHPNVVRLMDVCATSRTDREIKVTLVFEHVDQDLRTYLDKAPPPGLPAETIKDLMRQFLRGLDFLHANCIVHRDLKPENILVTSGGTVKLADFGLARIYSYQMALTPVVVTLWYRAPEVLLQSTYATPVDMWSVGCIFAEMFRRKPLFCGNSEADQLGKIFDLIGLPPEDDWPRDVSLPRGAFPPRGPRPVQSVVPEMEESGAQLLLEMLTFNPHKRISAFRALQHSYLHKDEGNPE
T2 sequence (P24385 whole entry partner): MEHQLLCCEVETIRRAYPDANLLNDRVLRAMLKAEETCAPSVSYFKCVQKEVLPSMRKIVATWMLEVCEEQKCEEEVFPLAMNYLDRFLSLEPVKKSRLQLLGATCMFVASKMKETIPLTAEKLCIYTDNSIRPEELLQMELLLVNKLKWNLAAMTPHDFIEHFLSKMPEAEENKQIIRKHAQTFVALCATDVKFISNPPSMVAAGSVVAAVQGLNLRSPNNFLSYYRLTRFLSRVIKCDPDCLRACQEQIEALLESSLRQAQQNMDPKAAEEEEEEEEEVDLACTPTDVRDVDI
Protocol: as §1

CDK2/Cyclin E = target: T3, CDK2/Cyclin E (Homo sapiens, UniProt P24941); experiment: CDK2/Cyclin E kinase inhibition, [γ-33P]ATP, histone H1; assay type: biochemical
T3 construct: made in house; host or cells: Sf9 insect cells (baculovirus)
Protocol: CDK2/Cyclin E and CDK1/Cyclin B kinases were produced in Sf9 insect cells via baculoviral infection and purified on a Ni-NTA column (Qiagen). CDK4/Cyclin D1, CDK5/p35NCK, CDK7/Cyclin H/MAT1 and CDK9/Cyclin T1 were purchased from ProQinase GmbH. […] The reactions were stopped by adding 5 mL of 3% aq. H3PO4. Aliquots were spotted onto P-81 phosphocellulose (Whatman), washed 3 times with 0.5% aq. H3PO4 and finally air-dried. Kinase inhibition was quantified using a FLA-7000 digital image analyzer (Fujifilm). The concentration of the test compounds required to decrease the CDK activity by 50% was determined from dose response curves and designated as IC50.

[1] = system: HT (diffuse large B-cell lymphoma, subtype—germinal center B-cell); experiment: MTT cytotoxicity assay, HT lymphoma cell line; assay type: cell-based; details: Homo sapiens, 72 h, HT cells, three days, read-out: Lymphoma cell lines GI50, HT
Source text: (§2) Cytotoxicity of the compounds is the major property determining their anti-lymphoma efficacy in vitro. One of the parameters used, as the basis for cytotoxicity assays, is the metabolic activity of viable cells. For example 2, a microtiter assay, which uses (3-(4,5-dimethylthiazol-2-yl)-2,5-diphenyltetrazolium bromide (MTT), is widely used to quantitate cell proliferation and cytotoxicity. This assay is widely used in drug screening programs and in chemosensitivity testing. Because only metabolically active living cells reduce MTT to correspond purple formazan dye, these assays detect viable cells exclusively. The quantity of reduced MTT corresponds to the number of vital cells in the culture.
(§3) The compounds were assayed using the following lymphoma cell lines: HT (diffuse large B-cell lymphoma, subtype—germinal center B-cell), OCI-LY2 (diffuse large B-cell lymphoma, subtype—germinal center B-cell), MINO (mantle cell lymphoma). All cell lines were grown in RPMI medium supplemented with fetal bovine serum and glutamine and maintained at 37° C. in a humidified atmosphere with 5% CO2. For cytotoxicity assays, 5000-10000 cells were seeded into each well of 96 well plate, allowed to stabilize for at least 8 h and then tested compounds were added at various concentrations ranging from 100 to 0.01 μM in triplicates. After three days, MTT solution (5 mg/ml; Sigma, St. Louis, USA) was added to cells and medium was replaced with DMSO after five hours. The absorbance was measured at 620 nm by employing a microplate reader. MTT assays were repeated 3 times for each drug application and untreated cells were used as reference. The GI50 values, drug concentrations lethal to 50% of the cells, were calculated from the obtained dose response curves.

[2] = system: OCI-LY2 (diffuse large B-cell lymphoma, subtype—germinal center B-cell); experiment: MTT cytotoxicity assay, OCI-LY2 lymphoma cell line; assay type: cell-based; details: 72 h, OCI-LY2 cells, three days, read-out: Lymphoma cell lines GI50, OCI-LY2
Source text: as §2, §3

[3] = system: MINO (mantle cell lymphoma); experiment: MTT cytotoxicity assay, MINO lymphoma cell line; assay type: cell-based; details: Homo sapiens, 72 h, MINO cells, three days, read-out: Lymphoma cell lines GI50, MINO
Source text: as §2, §3

[4] = Table 3, read-out: Enzyme inhibition IC50 CDK2/E
[5] = Table 4, read-out: CDK2/E inhibition IC50

Question: For CC[C@@H](CO)Nc1nc(NCc2ccc(-c3ccccn3)cc2)c2ncn(C(C)C)c2n1 [CR8, (2S)-2-[[9-propan-2-yl-6-[(4-pyridine-2-ylphenyl)methylamino]purin-2-yl]amino]butan-1-ol], which IC50 (CDK9/Cyclin T1) is on record?
Answer: 272 ± 38 nM

Question: What about the IC50 (CDK4/Cyclin D1) of the same molecule?
Answer: 26100 nM

Question: What does the source list for CC(C)c1n[nH]c2c(NCc3ccc(-c4ccccn4)cc3)nc(SCCN)nc12 [Compound 4.9, 5-(2-Amino-1-ethyl)thio-3-isopropyl-7-[4-(2-pyridyl)benzyl]amino-1(2)H-pyrazolo[4,3-d]pyrimidine]?
Answer: IC50 (CDK2/Cyclin E; CDK panel, tested at least in duplicates, read-out: IC50 CDK2): 5 ± 1 nM; IC50 (CDK2/Cyclin E; [4]): 4 nM; GI50 [1]: 40 nM; GI50 [2]: 46 nM; GI50 [3]: 29 nM

Question: Which results are given for CC(C)c1n[nH]c2c(NCc3ccc(-c4ccccn4)cc3)nc(SC3OC(CO)C(O)C(O)C3O)nc12 [Compound 4.22, 5-β-D-Thioglucosid-3-isopropyl-7-[4-(2-pyridyl)benzyl]amino-1(2)H-pyrazolo[4,3-d]pyrimidine]?
Answer: IC50 (CDK2/Cyclin E; [4]): 363 nM; GI50 [1]: 8070 nM; GI50 [2]: 25200 nM; GI50 [3]: 21600 nM

Question: For CC(C)c1n[nH]c2c(NCc3ccc(-c4ccccn4)cc3)nc(SC3CCCCC3N)nc12 (stereo not drawn) [Compound 4.31, 5-(2-Aminocyclohexyl)thio-3-isopropyl-7-[4-(2-pyridyl)benzyl]amino-1(2)H-pyrazolo[4,3-d]pyrimidine], which GI50 [1] is on record?
Answer: 139 nM

Question: And the GI50 [2]?
Answer: 136 nM

Question: And the GI50 [3]?
Answer: 157 nM

Question: Which GI50 [1] does the source give for CC(C)c1n[nH]c2c(NCc3ccc(-c4ccccn4)cc3)nc(SCC(O)C(F)(F)F)nc12 (stereo not drawn) [Compound 4.32, 5-(3,3,3-Trifluoro-2-hydroxy-1-propyl)thio-3-isopropyl-7-[4-(2-pyridyl)benzyl]amino-1(2)H-pyrazolo[4,3-d]pyrimidine] here?
Answer: 690 nM

Question: And the GI50 [2]?
Answer: 585 nM

Question: And the GI50 [3]?
Answer: 641 nM

Question: With COCSc1nc(NCc2ccc(-c3ccccn3)cc2)c2[nH]nc(C(C)C)c2n1 [Compound 4.33, 5-(Methoxymethyl)thio-3-isopropyl-7-[4-(2-pyridyl)benzyl]amino-1(2)H-pyrazolo[4,3-d]pyrimidine] as the molecule, how does the GI50 [1] read?
Answer: 340 nM

Question: What about the GI50 [2] of the same molecule?
Answer: 285 nM

Question: And the GI50 [3]?
Answer: 243 nM

Question: How did the GI50 [1] turn out when CNCCSc1nc(NCc2ccc(-c3ccccn3)cc2)c2[nH]nc(C(C)C)c2n1 [Compound 4.34, 5-(3-Methylamino-1-ethyl)thio-3-isopropyl-7-[4-(2-pyridyl)benzyl]amino-1(2)H-pyrazolo[4,3-d]pyrimidine] was run?
Answer: 56 nM

Question: What about the GI50 [2] of the same molecule?
Answer: 92 nM

Question: What about the GI50 [3] of the same molecule?
Answer: 40 nM

Question: Which IC50 (CDK2/Cyclin E; [4]) does the source give for CC(C)c1n[nH]c2c(NCc3ccc(-c4ccccn4)cc3)nc(SCCS)nc12 [Compound 4.35, 5-(2-sulfanylethyl)thio-3-isopropyl-7-[4-(2-pyridyl)benzyl]amino-1(2)H-pyrazolo[4,3-d]pyrimidine] here?
Answer: 320 nM

Question: How did the IC50 (CDK2/Cyclin E; [5]) turn out when CC(C)c1n[nH]c2c(NCc3ccc(-n4ccnc4)cc3)nc(SCCO)nc12 [Compound 4.50, 5-(2-Hydroxy-1-ethyl)thio-3-isopropyl-7-[4-(imidazol-1-yl)benzyl]amino-1(2)H-pyrazolo[4,3-d]pyrimidine] was run?
Answer: 10 nM

Question: CC(C)c1n[nH]c2c(NCc3ccc(-n4ccnc4)cc3)nc(SCCN)nc12 [Compound 4.57, 5-(2-Amino-1-ethyl)thio-3-isopropyl-7-[4-(imidazol-1-yl)benzyl]amino-1(2)H-pyrazolo[4,3-d]pyrimidin] was tested. Which IC50 (CDK2/Cyclin E; [5]) did it give?
Answer: 5 nM

Question: Which IC50 (CDK2/Cyclin E; [5]) does the source give for CC(C)c1[nH]nc2c(NCc3ccc(-n4cccn4)cc3)nc(SCCO)nc12 [Compound 4.80, 5-(2-Hydroxy-1-ethyl)thio-3-isopropyl-7-[4-(pyrazol-1-yl)benzyl]amino-1(2)H-pyrazolo[4,3-d]pyrimidin] here?
Answer: 3 nM

Question: How did the IC50 (CDK2/Cyclin E; [5]) turn out when CC(O)CSc1nc(NCc2ccc(-n3cccn3)cc2)c2n[nH]c(C(C)C)c2n1 (stereo not drawn) [Compound 4.81, 5-(2-Hydroxy-1-propyl)thio-3-isopropyl-7-[4-(pyrazol-1-yl)benzyl]amino-1(2)H-pyrazolo[4,3-d]pyrimidin] was run?
Answer: 37 nM

Question: CC(C)c1[nH]nc2c(NCc3ccc(-n4cccn4)cc3)nc(SCC(C)(C)N)nc12 [Compound 4.90, 5-(2-Amino-2-methyl-1-propyl)thio-3-isopropyl-7-[4-(pyrazol-1-yl)benzyl]amino-1(2)H-pyrazolo[4,3-d]pyrimidin] was tested. Which IC50 (CDK2/Cyclin E; [5]) did it give?
Answer: 11 nM

Question: With CC(C)c1[nH]nc2c(NCc3ccc(-n4cccn4)cc3)nc(SCC(C)(C)O)nc12 [Compound 4.93, 5-(2-Hydroxy-2-methyl-1-propyl)thio-3-isopropyl-7-[4-(pyrazol-1-yl)benzyl]amino-1(2)H-pyrazolo[4,3-d]pyrimidin] as the molecule, how does the IC50 (CDK2/Cyclin E; [5]) read?
Answer: 8 nM

Question: CC(C)c1[nH]nc2c(NCc3ccc(-n4cccn4)cc3)nc(SCC(O)CO)nc12 (stereo not drawn) [Compound 4.94, 5-(2,3-Dihydroxy-1-propyl)thio-3-isopropyl-7-[4-(pyrazol-1-yl)benzyl]amino-1(2)H-pyrazolo[4,3-d]pyrimidin] was tested. Which IC50 (CDK2/Cyclin E; [5]) did it give?
Answer: 6 nM

Question: For CC(C)c1[nH]nc2c(NCc3ccc(-n4cccn4)cc3)nc(SCCN(C)C)nc12 [Compound 4.95], which IC50 (CDK2/Cyclin E; [5]) is on record?
Answer: 43 nM

Question: Which IC50 (CDK2/Cyclin E; [5]) does the source give for CC(C)c1[nH]nc2c(NCc3ccc(-n4cccn4)cc3)nc(SCCCN(C)C)nc12 [Compound 4.96] here?
Answer: 60 nM

Question: How did the IC50 (CDK2/Cyclin E; [5]) turn out when CC(C)c1n[nH]c2c(NCc3ccc(-c4c[nH]cn4)cc3)nc(SCCO)nc12 [Compound 4.109, 5-(2-Hydroxy-1-ethyl)thio-3-isopropyl-7-[4-(imidazol-4-yl)benzyl]amino-1(2)H-pyrazolo[4,3-d]pyrimidin] was run?
Answer: 5 nM

Question: CC(C)c1n[nH]c2c(NCc3ccc(-c4cnccn4)cc3)nc(SCCO)nc12 [Compound 4.133, 5-(2-Hydroxy-1-ethyl)thio-3-isopropyl-7-[4-(pyrazin-2-yl)benzyl]amino-1(2)H-pyrazolo[4,3-d]pyrimidin] was tested. Which IC50 (CDK2/Cyclin E; [5]) did it give?
Answer: 6 nM

Question: CC(C)c1n[nH]c2c(NCc3ccc(-c4cnccn4)cc3)nc(SCCN)nc12 [Compound 4.139, 5-(2-Amino-1-ethyl)thio-3-isopropyl-7-[4-(pyrazin-2-yl)benzyl]amino-1(2)H-pyrazolo[4,3-d]pyrimidin] was tested. Which IC50 (CDK2/Cyclin E; [5]) did it give?
Answer: 4 nM
